Reference: patent US10005767B2, “Compositions and methods for inhibition of the JAK pathway” (Rigel Pharmaceuticals, Inc., priority 2009, dated 2018)
Counter-ions that a name gives are not always drawn. Like-named read-outs stand apart in the source and are kept apart here.

System: human primary T-cells, IL-2 stimulated proliferation (JAK-1 and JAK-3 dependent; reported as JAK3 activity)
Assay: Human primary T-cell proliferation stimulated by IL-2 (Example 3)
Type: cell-based
Conditions: tested under conditions described in Example 3 (IL-2 stimulated human primary T-cell proliferation), read-out: ability to inhibit JAK3 activity, IC50 range (Table V)
Method in brief: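 Peripheral-blood human T-cells pre-activated via TCR/CD28, IL-2-starved overnight, then cultured 72 h at 37 °C with compound in Yssel's medium containing IL-2 (80 U/mL in cell suspension). Proliferation read as viable-cell ATP by CellTiter-Glo luminescence; reduction versus control taken as JAK pathway inhibition.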

`Cc1cnc(Nc2ccc(F)c(NS(C)(=O)=O)c2)nc1Nc1ccc2oc(=O)n(C)c2c1` [Compound I-88, N2-((4-fluoro-3-methylsulfonylamino)phenyl)-N4-(3-methyl-2-oxo-2,3-dihydrobenzo[d]oxazol-5-yl)-5-methylpyrimidine-2,4-diamine] showed an IC50 of under 500 nM.
`Cc1cnc(Nc2ccc(F)c(NS(C)(=O)=O)c2)nc1Nc1ccc2c(c1)oc(=O)n2C` [Compound I-89, N2-((4-fluoro-3-methylsulfonylamino)phenyl)-N4-(3-methyl-2-oxo-2,3-dihydrobenzo[d]oxazol-6-yl)-5-methylpyrimidine-2,4-diamine] showed an IC50 of under 500 nM.
For `CS(=O)(=O)Nc1cc(Nc2ncc(F)c(Nc3ccc4oc(=O)[nH]c4c3)n2)ccc1F` [Compound I-90, N2-((4-fluoro-3-methylsulfonylamino)phenyl)-N4-(2-oxo-2,3-dihydrobenzo[d]oxazol-5-yl)-5-fluoropyrimidine-2,4-diamine], the IC50 was under 500 nM.
`Cn1c(=O)oc2ccc(Nc3nc(Nc4ccc(F)c(NS(C)(=O)=O)c4)ncc3F)cc21` [Compound I-91, N2-((4-fluoro-3-methylsulfonylamino)phenyl)-N4-(3-methyl-2-oxo-2,3-dihydrobenzo[d]oxazol-5-yl)-5-fluoropyrimidine-2,4-diamine] gave an IC50 of 500 to 5000 nM.
`Cn1c(=O)oc2cc(Nc3nc(Nc4ccc(F)c(NS(C)(=O)=O)c4)ncc3F)ccc21` [Compound I-92, N2-((4-fluoro-3-methylsulfonylamino)phenyl)-N4-(3-methyl-2-oxo-2,3-dihydrobenzo[d]oxazol-6-yl)-5-fluoropyrimidine-2,4-diamine] was tested, and the IC50 was over 10000 nM.
In the case of `Cc1cnc(Nc2ccc(N(C)S(C)(=O)=O)cc2)nc1Nc1ccc2oc(=O)[nH]c2c1` [Compound I-93, N2-((4-methylsulfonyl-N-methylamino)phenyl)-N4-(2-oxo-2,3-dihydrobenzo[d]oxazol-5-yl)-5-methylpyrimidine-2,4-diamine], the IC50 is reported as under 500 nM.
In the case of `Cc1cnc(Nc2ccc(N(C)S(C)(=O)=O)cc2)nc1Nc1ccc2oc(=O)n(C)c2c1` [Compound I-94, N2-((4-methylsulfonyl-N-methylamino)phenyl)-N4-(3-methyl-2-oxo-2,3-dihydrobenzo[d]oxazol-5-yl)-5-methylpyrimidine-2,4-diamine], the IC50 is reported as under 500 nM.
Work on `Cc1cnc(Nc2ccc(N(C)S(C)(=O)=O)cc2)nc1Nc1ccc2c(c1)oc(=O)n2C` [Compound I-95, N2-((4-methylsulfonyl-N-methylamino)phenyl)-N4-(3-methyl-2-oxo-2,3-dihydrobenzo[d]oxazol-6-yl)-5-methylpyrimidine-2,4-diamine] yielded an IC50 of under 500 nM.
`CN(c1ccc(Nc2ncc(F)c(Nc3ccc4oc(=O)[nH]c4c3)n2)cc1)S(C)(=O)=O` [Compound I-96, N2-((4-methylsulfonyl-N-methylamino)phenyl)-N4-(2-oxo-2,3-dihydrobenzo[d]oxazol-5-yl)-5-fluoropyrimidine-2,4-diamine] gave an IC50 of under 500 nM.
`CN(c1ccc(Nc2ncc(F)c(Nc3ccc4c(c3)oc(=O)n4C)n2)cc1)S(C)(=O)=O` [Compound I-97, N2-((4-methylsulfonyl-N-methylamino)phenyl)-N4-(3-methyl-2-oxo-2,3-dihydrobenzo[d]oxazol-6-yl)-5-fluoropyrimidine-2,4-diamine] was tested, and the IC50 was over 10000 nM.
`Cc1cnc(Nc2cccc(S(N)(=O)=O)c2)nc1Nc1ccc2[nH]c(=O)oc2c1` [Compound I-98, N2-((3-aminosulfonyl)phenyl)-N4-(2-oxo-2,3-dihydrobenzo[d]oxazol-6-yl)-5-methylpyrimidine-2,4-diamine] gave an IC50 of under 500 nM.
Work on `Cc1cnc(Nc2ccc(S(N)(=O)=O)cc2)nc1Nc1ccc2[nH]c(=O)oc2c1` [Compound I-99, N2-((4-aminosulfonyl)phenyl)-N4-(2-oxo-2,3-dihydrobenzo[d]oxazol-6-yl)-5-methylpyrimidine-2,4-diamine] yielded an IC50 of under 500 nM.
In the case of `Cc1cnc(Nc2cccc(S(C)(=O)=O)c2)nc1Nc1ccc2[nH]c(=O)oc2c1` [Compound I-100, N2-((3-methylsulfonyl)phenyl)-N4-(2-oxo-2,3-dihydrobenzo[d]oxazol-6-yl)-5-methylpyrimidine-2,4-diamine], the IC50 is reported as under 500 nM.
Compound `Cc1cnc(Nc2ccc(S(C)(=O)=O)cc2)nc1Nc1ccc2[nH]c(=O)oc2c1` [Compound I-101, N2-((4-methylsulfonyl)phenyl)-N4-(2-oxo-2,3-dihydrobenzo[d]oxazol-6-yl)-5-methylpyrimidine-2,4-diamine] has an IC50 of under 500 nM.
For `Cc1cnc(Nc2cccc(NS(C)(=O)=O)c2)nc1Nc1ccc2[nH]c(=O)oc2c1` [Compound I-102, N2-((3-methylsulfonylamino)phenyl)-N4-(2-oxo-2,3-dihydrobenzo[d]oxazol-6-yl)-5-methylpyrimidine-2,4-diamine], the IC50 was under 500 nM.
`Cc1cnc(Nc2ccc(NS(C)(=O)=O)cc2)nc1Nc1ccc2[nH]c(=O)oc2c1` [Compound I-103, N2-((4-methylsulfonylamino)phenyl)-N4-(2-oxo-2,3-dihydrobenzo[d]oxazol-6-yl)-5-methylpyrimidine-2,4-diamine] was tested, and the IC50 was over 10000 nM.
In the case of `Cc1ccc(Nc2ncc(C)c(Nc3ccc4[nH]c(=O)oc4c3)n2)cc1NS(C)(=O)=O` [Compound I-104, N2-((3-methylsulfonylamino-4-methyl)phenyl)-N4-(2-oxo-2,3-dihydrobenzo[d]oxazol-6-yl)-5-methylpyrimidine-2,4-diamine], the IC50 is reported as under 500 nM.
With `Cc1cnc(Nc2ccc(F)c(NS(C)(=O)=O)c2)nc1Nc1ccc2[nH]c(=O)oc2c1` [Compound I-105, N2-((4-fluoro-3-methylsulfonylamino)phenyl)-N4-(2-oxo-2,3-dihydrobenzo[d]oxazol-6-yl)-5-methylpyrimidine-2,4-diamine] the IC50 was over 10000 nM.
`Cc1cnc(Nc2cccc(OC(F)(F)F)c2)nc1Nc1ccc2oc(=O)[nH]c2c1` [Compound I-106, N4-(benzoxazolin-2-on-5-yl)-N2-(3-trifluoromethoxyphenyl)-5-methylpyrimidine-2,4-diamine trifluoroacetate salt] showed an IC50 (Homo sapiens, T-cell) of under 500 nM.
`O=c1[nH]c2cc(Nc3nc(Nc4cccc(OC(F)(F)F)c4)ncc3F)ccc2o1` [Compound I-107, N4-(benzoxazolin-2-on-5-yl)-N2-(3-trifluoromethoxyphenyl)-5-fluoropyrimidine-2,4-diamine trifluoroacetate salt] was tested, and the IC50 (Homo sapiens, T-cell) was 500 to 5000 nM.
In the case of `Cc1cnc(Nc2ccc(OC(F)(F)F)cc2)nc1Nc1ccc2oc(=O)[nH]c2c1` [Compound I-108, N4-(benzoxazolin-2-on-5-yl)-N2-(4-trifluoromethoxyphenyl)-5-methylpyrimidine-2,4-diamine trifluoroacetate salt], the IC50 (Homo sapiens, T-cell) is reported as under 500 nM.
`O=c1[nH]c2cc(Nc3nc(Nc4ccc(OC(F)(F)F)cc4)ncc3F)ccc2o1` [Compound I-109, N4-(benzoxazolin-2-on-5-yl)-N2-(4-trifluoromethoxyphenyl)-5-fluoropyrimidine-2,4-diamine trifluoroacetate salt] showed an IC50 (Homo sapiens, T-cell) of under 500 nM.
For `CCN1CCN(c2ccc(Nc3ncc(C)c(Nc4ccc5oc(=O)[nH]c5c4)n3)cc2C(F)(F)F)CC1` [Compound I-110, N4-(benzoxazolin-2-on-5-yl)-N2-[3-trifluoromethyl-4-(4-ethylpiperazin-1-yl)phenyl]-5-methylpyrimidine-2,4-diamine], the IC50 (Homo sapiens, T-cell) was under 500 nM.
Compound `Cc1cnc(Nc2ccc(S(=O)(=O)NC(C)(C)C)cc2)nc1Nc1ccc2oc(=O)[nH]c2c1` [Compound I-112, N4-(benzoxazolin-2-on-5-yl)-N2-[4-N-(t-butyl)aminosulfonylphenyl]-5-methylpyrimidine-2,4-diamine] has an IC50 of under 500 nM.
With `Cc1ccc(Nc2ncc(C)c(Nc3ccc4oc(=O)[nH]c4c3)n2)cc1S(=O)(=O)NC(C)(C)C` [Compound I-113, N4-(benzoxazolin-2-on-5-yl)-N2-[4-methyl-3-N-(t-butyl)aminosulfonylphenyl]-5-methylpyrimidine-2,4-diamine] the IC50 was under 500 nM.
For `Cc1cnc(Nc2cccc(S(=O)(=O)NC(C)C)c2)nc1Nc1ccc2oc(=O)[nH]c2c1` [Compound I-114, N4-(benzoxazolin-2-on-5-yl)-N2-[3-N-(i-propyl)aminosulfonylphenyl]-5-methylpyrimidine-2,4-diamine], the IC50 was under 500 nM.
Work on `COc1cc(Nc2ncc(F)c(Nc3ccc4oc(=O)[nH]c4c3)n2)cc(OC)c1OC` [Compound I-115, N4-(benzoxazolin-2-on-5-yl)-N2-(3,4,5-trimethoxyphenyl)-5-fluoropyrimidine-2,4-diamine] yielded an IC50 (Homo sapiens, T-cell) of under 500 nM.
`COc1ccc(Nc2ncc(C)c(Nc3ccc4oc(=O)[nH]c4c3)n2)cc1OC(F)F` [Compound I-116, N2-(3-(difluoromethoxy)-4-methoxyphenyl)-N4-(benzo[d]oxazol-2(3H)-on-5-yl)-5-methylpyrimidine-2,4-diamine] gave an IC50 (Homo sapiens, T-cell) of under 500 nM.
Work on `Cc1cnc(Nc2ccc(S(=O)(=O)C(F)(F)F)cc2)nc1Nc1ccc2oc(=O)[nH]c2c1` [Compound I-117, N4-(benzo[d]oxazol-2(3H)-on-5-yl)-N2-(4-trifluoromethylsulfonyl)phenyl-5-methylpyrimidine-2,4-diamine] yielded an IC50 of under 500 nM.
In the case of `Cc1cnc(Nc2cccc(S(=O)(=O)C(F)(F)F)c2)nc1Nc1ccc2oc(=O)[nH]c2c1` [Compound I-118, N4-(benzo[d]oxazol-2(3H)-on-5-yl)-N2-(3-trifluoromethylsulfonyl)phenyl-5-methylpyrimidine-2,4-diamine], the IC50 is reported as under 500 nM.
`COc1cc(Nc2ncc(C)c(Nc3ccc4oc(=O)[nH]c4c3)n2)cc(OC)c1OC` [Compound I-119, N4-(benzo[d]oxazol-2(3H)-on-5-yl)-N2-(3,4,5-trimethoxy)phenyl-5-methylpyrimidine-2,4-diamine] gave an IC50 of under 500 nM.
`Cc1cc(Nc2ncc(C)c(Nc3ccc4oc(=O)[nH]c4c3)n2)ccc1N1CCN2CCC1CC2` [Compound I-120, N4-(benzo[d]oxazol-2(3H)-on-5-yl)-N2-((4-(1,4-diazabicyclo[3.2.2]nonan-4-yl)-3-methyl)phenyl)-5-methylpyrimidine-2,4-diamine] showed an IC50 of under 500 nM.
